Source: patent US12595231B2 (priority 2022, dated 2026)
Values after ≈ are worked out from the molar mass of the structure shown. Like-named read-outs stand apart in the source and are kept apart here.

Columns and labels:
[1] = primary salt formation assessment: storage at 40° C./75% RH for ca. 24 h, XRPD; format: physicochemical; settings: solids stored at 40° C./75% RH for ca. 24 h
Method: Solids were dried at 40° C. under vacuum for ca. 24 h, and then re-analysed by XRPD.
Solids were then stored at 40° C./75% RH for ca. 24 h, and then re-analysed by XRPD.

[2] = primary salt formation assessment: solution degradation (HPLC of mother liquor); format: physicochemical; settings: salt formation experiment
Method: HPLC analysis was carried out to determine the chemical purity of the mesembrine and to provide information on any impurities. The following conditions were use: • Column: Waters Acquity BEH 018 1.7 μm 150 mm×2.1 mm • Column Temperature: 33° C. • Autosampler Temperature: 25° C. • UV Wavelength: 280 nm • Injection Volume: 5 μL • Flow Rate: 0.29 mL/min • Mobile Phase A: 0.1% NH4 in H2O • Mobile Phase B: Methanol:Water 20:80% v/v • Gradient Program: […]
The experiments were then temperature cycled between the upper temperature limit (specified in Table 3.1) and 5° C. at 0.1° C./min, with 1 h holds at the upper temperature limit, and 5° C. for ca. 72 h.
After temperature cycling, solids were isolated from experiments at 5° C., and analysed by XRPD.

[3] = DVS analysis (water uptake); format: physicochemical; settings: for hygroscopicity: from DVS water uptake at 80% RH
[4] = VH-XRPD analysis (variable humidity); format: physicochemical
[5] = salt hydration study in methanol/water of known water activity; format: physicochemical; settings: 25° C.; for Observation: 24 h; for Solubility: methanol/water, all levels of water activity (aw 0.2, 0.5, 0.8)
Method: Approximately 20 mg of the hydrochloride (HCl), besylate and fumarate salts were weighed into 3×2 mL push cap vials. 0.05-0.1 mL of relevant solvent system was added to each vial, at 25° C.
Methanol/water solvent systems (99:1, 75:25, 33:67) of known water activity (aw 0.2, 0.5 and 0.8 respectively) were used. The experiment was stirred for ca. 24 h. After 24 h, any slurries were centrifuged, and the solids analysed by XRPD.
An additional hydration study was required in order to repeat the salt hydration studies, for the HCl salt and the besylate salt due to dissolution in the first set of experiments:
For each salt, approximately 10 mg was weighed into 4×2 mL vials and a stirrer bar added. 10 μL of each solvent system was added, at 25° C. The experiments were stirred for 24 h, and any solids recovered were then analysed by XRPD.

[6] = format: physicochemical; settings: for HPLC Conc.: 25° C., 24 h, with respect to mesembrine; for HPLC Purity: solution/mother liquor
Method: Approximately 20 mg of each salt was weighed into 3×2 mL push cap vials. 0.1 mL of buffer (Chloride pH 1.2; Acetate pH 4.5; Phosphate pH 6.8) was added to each vial, at 25° C. The experiment was stirred for ca. 24 h. After 2 h, the pH was measured and adjusted if required. After 24 h a final pH measurement was taken. Any slurries were centrifuged and the solids analysed by XRPD.

[7] = 1-week stability study; format: physicochemical; settings: for Observation: Sigma Aldrich colour chart
Method: A 1-week stability study was performed for hydrochloride salt Pattern 1, besylate salt Pattern 1, fumarate salt Pattern 1+4, and fumarate salt Pattern 4.
Approximately 5 mg of the salt was weighed into 3×2 mL push cap vials. The 2 mL vials were then each placed inside a 20 mL vial, with the lids on or off as required. The solids were placed under the required stability conditions for 1 week at the following three conditions: 40° C./75% RH (open); 80° C. (closed); Ambient light, temperature and humidity (open)
After 1-week, visual observations were noted, then the solids were analysed by XRPD and HPLC.

[8] = solvent miscibility/solubility of mesembrine (Example 2); format: physicochemical
Method: After dissolution 278 μL of the solution was aliquoted into pre-tared vials, and the solvent allowed to evaporate at ambient conditions for 1 h. The vials were then dried at 20° C. under vacuum for ca. 22 h. After drying, the vials were back-weighed to determine the mass of mesembrine in each vial.
The miscibility study was carried out by adding aliquots of the desired solvent system to each vial. The following aliquot sizes were used: Aliquot numbers 1-10-20 μL; 11-16-50 μL; 17-19-200 μL; 20-750 μL.
In between additions the experiment was heated to 40° C. for ca. 5 minutes to facilitate miscibility/solubility. Additions were continued until miscibility was observed, or ca. 100 volumes (2 mL) had been added.

[9] = blood:plasma and blood:brain ratios in satellite animals; format: in vivo, male C57Bl/6J mice; settings: satellite mice, 10 mg/kg i.p., t=0.25 h
Method: Groups of 18 male C57Bl/6J mice (weighing between 20 and 30 g) received a single administration of test compound (10 mg/kg; i.p.) in methylcellulose (0.5% w/v) at a nominal concentration of […].

[10] = male C57Bl/6J mice, 10 mg/kg i.p., plasma
[11] = cited from earlier work
[12] = 400 mg/mL, water activity aw 0.5 (methanol/water 75:25)
[13] = Target pH 1.2 (chloride buffer)
[14] = Target pH 1.2, ca. 20 mg in 0.1 mL buffer
[15] = Target pH 4.5, ca. 20 mg in 0.1 mL buffer
[16] = Target pH 6.8 (phosphate buffer)
[17] = Target pH 6.8, ca. 20 mg in 0.1 mL buffer
[18] = Ambient light, temperature and humidity, 1 week

COc1ccc(C23CCC(=O)CC2N(C)CC3)cc1OC.O=S(=O)(O)c1ccccc1 (stereo not shown) [Besylate Pattern 1, mesembrine besylate]
physical stability at 40° C./75% RH (Comments) [1]: physically stable
solution degradation (Comments) [2]: degradation
DVS water uptake ([3]; 80% RH, 25° C.): 2.3 wt %
DVS water uptake ([3]; 90% RH): 13 wt %
hygroscopicity ([3]; 25° C.): hygroscopic
solid form by VH-XRPD ([4]; after 17 h at 90% RH): persisted
Observation ([5]; 200 mg/mL, water activity aw 0.2 (methanol/water 99:1)): Clear solution
Observation [5, 12]: Clear solution
Observation ([5]; 400 mg/mL, water activity aw 0.8 (methanol/water 33:67)): Clear solution
Observation ([5]; 1000 mg/mL, water activity aw 0.2 (methanol/water 99:1)): Clear solution
Observation ([5]; 1000 mg/mL, water activity aw 0.5 (methanol/water 75:25)): Clear solution
Observation ([5]; 1000 mg/mL, water activity aw 0.8 (methanol/water 33:67)): Clear solution
Solubility ([5]; listed as besylate salt): greater than 1000 mg/mL
Solubility ([5]; listed as besylate salt Pattern 1): > 1000 mg/mL
HPLC Conc. [6, 13]: >172 mg/mL
Observation [6, 14]: Clear solution
HPLC Conc. ([6]; Target pH 4.5 (acetate buffer)): >140 mg/mL
Observation [6, 15]: Clear solution
HPLC Conc. [6, 16]: >97 mg/mL
Observation [6, 17]: Clear solution
HPLC Purity ([6]; Target pH 1.2, 24 h): 98.01 % area
HPLC Purity ([6]; Target pH 4.5, 24 h): 98.02 % area
HPLC Purity ([6]; Target pH 6.8, 24 h): 97.62 % area
HPLC ([7]; 40° C./75% RH (open), 1 week): 98.0 % area
XRPD (pattern number) ([7]; 40° C./75% RH (open), 1 week): 1,
Observation ([7]; 40° C./75% RH (open), 1 week): Light brown solids (BR8)
HPLC ([7]; 80° C. (closed), 1 week): 96.7 % area
XRPD (pattern number) ([7]; 80° C. (closed), 1 week): 1,
Observation ([7]; 80° C. (closed), 1 week): Faint beige solids (BE10)
HPLC [7, 18]: 98.1 % area
XRPD (pattern number) [7, 18]: 1,
Observation [7, 18]: Faint beige solids (BE10)
HPLC ([7]; Input): 98.1 % area
XRPD (pattern number) ([7]; Input): 1,
Observation ([7]; Input): Faint beige solids (BE10)

COc1ccc(C23CCC(=O)CC2N(C)CC3)cc1OC.O=C(O)C=CC(=O)O (stereo not shown) [Fumarate Pattern 1 + 4, mesembrine fumarate]
DVS water uptake ([3]; 80% RH, 25° C.): 0.7 wt %
DVS water uptake ([3]; between 0-20% RH): 2.1 wt %
hygroscopicity ([3]; 25° C.): slightly hygroscopic
solid form by VH-XRPD ([4]; at 0% RH): fumarate Pattern 5
Observation ([5]; 200 mg/mL, water activity aw 0.8 (methanol/water 33:67)): Thick slurry
Observation ([5]; 400 mg/mL, water activity aw 0.2 (methanol/water 99:1)): Thick slurry
Observation [5, 12]: Slurry
HPLC Conc. [6, 13]: 29.44 mg/mL
Observation [6, 14]: Slurry
HPLC Conc. ([6]; Target pH 4.5 (acetate buffer)): >24 mg/mL
Observation [6, 15]: Clear solution
HPLC Conc. [6, 16]: 18.98 mg/mL
Observation [6, 17]: Oil
HPLC Purity ([6]; Target pH 1.2, 24 h): 96.31 % area
HPLC Purity ([6]; Target pH 4.5, 24 h): 96.07 % area
HPLC Purity ([6]; Target pH 6.8, 24 h): 96.78 % area
HPLC ([7]; 40° C./75% RH (open), 1 week): 95.6 % area
XRPD (pattern number) ([7]; 40° C./75% RH (open), 1 week): 1/4,
Observation ([7]; 40° C./75% RH (open), 1 week): Faint beige solids (BE10
HPLC ([7]; 80° C. (closed), 1 week): 83.4 % area
XRPD (pattern number) ([7]; 80° C. (closed), 1 week): 6,
Observation ([7]; 80° C. (closed), 1 week): Light brown solids (BR8)
HPLC [7, 18]: 96.1 % area
XRPD (pattern number) [7, 18]: 1/4,
Observation [7, 18]: Faint beige solids (BE10
HPLC ([7]; Input): 96.6 % area
XRPD (pattern number) ([7]; Input): 1/4,
Observation ([7]; Input): Faint beige solids (BE10)

COc1ccc(C23CCC(=O)CC2N(C)CC3)cc1OC (stereo not shown) [mesembrine, 3a-(3,4-dimethoxyphenyl)-octahydro-1-methy-6H-indol-6-one]
Miscibility ([8]; 1,4-Dioxane): >850 mg/mL
Miscibility ([8]; 2-Methyl THF): >845 mg/mL
Miscibility ([8]; 2-Propanol (IPA)): >870 mg/mL
Miscibility ([8]; 2-Propanol:Water (50:50)): >870 mg/mL
Miscibility ([8]; Acetone): >890 mg/mL
Miscibility ([8]; Acetonitrile): >855 mg/mL
Miscibility ([8]; DMSO): >288 mg/mL
Miscibility ([8]; Ethanol): >630 mg/mL
Miscibility ([8]; Ethyl acetate): >445 mg/mL
Miscibility ([8]; Heptane): <9 mg/mL
Miscibility ([8]; Isopropyl acetate): >900 mg/mL
Miscibility ([8]; Methanol): >455 mg/mL
Miscibility ([8]; Methylethyl Ketone (MEK)): >915 mg/mL
Miscibility ([8]; N-Methyl-2-pyrrolidone (NMP)): >450 mg/mL
Miscibility ([8]; Tert-butyl methyl ether): >465 mg/mL
Miscibility ([8]; Tetrahydrofuran (THF)): >381 mg/mL
Miscibility ([8]; Toluene): >455 mg/mL
Miscibility ([8]; Water): <9 mg/mL
Brain concentration [9]: 1292 ng/g
Plasma concentration [9]: 317 ng/mL
AUC0-inf [10]: 290 ng·h/mL
Cmax [10]: 400 ng/mL
Tmax [10]: 15 min
half-life [10]: 27.2 min
t1/2 [10]: 27.2 min
Solubility ([11]; Ethanol): 10 mg/mL (≈ 34.6 mM)
Solubility ([11]; Water): low solubility
Solubility ([11]; chloroform): 10 mg/mL (≈ 34.6 mM)
